# Results as given in patent US20150099703A1, “TREATMENT OF POSTPARTUM HAEMORRHAGE WITH CHEMICALLY MODIFIED HEPARIN OR HEPARAN SULPHATE AND A UTEROTONIC AGENT” (DILAFOR AB, priority 2012, published 2015).
# Positions of bridges follow the written chain, without caps; N, C: chain ends. Non-standard residues stand in square brackets, D forms with d. Residues, ends and D or L forms follow the SMILES beside them. Orn = NCCC[C@H](N)C(=O)O; Mpa = O=C(O)CCS
# Key:
# [1] = system: Human uterine smooth muscle cells; assay: Intracellular Ca2+ measurement (Fluo-4, confocal live cell imaging) in uterine smooth muscle cells; assay type: cell-based
# Protocol: Human uterine smooth muscle cells were established in a culture. Intracellular Ca^2+ was measured with the calcium indicator dye Fluo-4 and live cell imaging with confocal microscopy was established for the cells.
# [2] = heparin, comparison; cited from earlier work
molecule,measurement,setting,value
"NCCOB(c1ccccc1)c1ccccc1 [2-APB, 2-Aminoethoxydiphenyl borate]",effect on oxytocin stimulated Ca2+-transport,"[1]; 100 μM, 30 min of incubation",decreased strongly
same,effect on oxytocin/DF01 stimulated Ca2+-transport,"[1]; 100 μM, 30 min of incubation",decreased strongly
CCOc1ccc(C[C@H]2NC(=O)CCSSC[C@@H](C(=O)N3CCC[C@H]3C(=O)N[C@@H](CCCN)C(=O)NCC(N)=O)NC(=O)[C@H](CC(N)=O)NC(=O)[C@H]([C@@H](C)O)NC(=O)[C@H]([C@@H](C)CC)NC2=O)cc1 [Atosiban] ([Mpa][dY](Et)ITNCP[Orn]G-NH2; disulfide 1-6),effect on the combination oxytocin/DF01 effect on Ca2+ transport,[1]; concentration of 10^−6 M,clearly inhibited
same,effect on the oxytocin effect on Ca2+ transport,[1]; concentration of 10^−6 M,clearly inhibited
heparin,corresponding (subcutaneous) bioavailability,[2],about 10%
CC[C@H](C)[C@@H]1NC(=O)[C@H](Cc2ccc(O)cc2)NC(=O)[C@@H](N)CSSC[C@@H](C(=O)N2CCC[C@H]2C(=O)N[C@@H](CC(C)C)C(=O)NCC(N)=O)NC(=O)[C@H](CC(N)=O)NC(=O)[C@H](CCC(N)=O)NC1=O [oxytocin],Ca2+-influx to the cytosol,[1]; cells treated with oxytocin alone,Ca^2+-influx to the cytosol was demonstrated
same,concentration giving maximum effect on Ca2+-influx,"[1]; oxytocin alone, dose-dependent effect",0.05 IU/ml
